Experimental data: paper PMC9497102, “Thiosemicarbazone Derivatives Developed to Overcome COTI-2 Resistance” (Cancers, 2022)
In brackets after ≈: the same amount, converted by molar mass. Like-named read-outs stand apart in the source and are kept apart here. Marks after values point to notes of the source that are not given here. Each block holds one molecule with its values, some of them ahead of it.

Experiments:
[1] = pKa by UV-vis spectrophotometric titrations; format: physicochemical; conditions: 30% (v/v) DMSO/H2O solution, I = 0.1 M (KCl), 25 °C
Experimental: (§1) The UV-vis spectra were recorded using an Agilent Cary 8454 diode array spectrophotometer in the 200 to 950 nm window, and the path length was varied between 1 and 5 cm, depending on the solubility (thus the applicable concentration). For the spectrophotometric titrations, the same instruments (Metrohm 665 Dosimat burette, Orion 710A pH-meter, Metrohm combined pH glass electrode) and experimental setup (ionic strength: 0.10 M (KCl); titrant: 0.10 M carbonate-free KOH solution in 30% (v/v) DMSO/H2O; samples: prepared in 30% (v/v) DMSO/H2O; calibration: method of Irving et al.; pH range: 1.0 to 13.5; and sample volume: 10 cm^3) were used as in our previous work. Argon overpressure was used for the Fe(II)-containing samples when the Fe(II) stock solution was added to the samples in tightly closed titration vessels, which were previously completely deoxygenated (for 20 min). Measurements were taken with ligands (10–80 μM, depending on solubility) in the presence of 1, 0.5, and 0.3 equiv. of Cu(II), Fe(II), and Fe(III) ions. Equilibrium constants, such as the proton dissociation constants (pKa) of the ligands, the overall stability constants (logβ) of the metal complexes, and the UV-vis spectra of the individual ligand or complex species were computed using the program PSEQUAD [18], as was the case in our previous works.

[2] = Thermodynamic solubility in water at pH 7.4 (UV-vis); format: physicochemical; conditions: water at pH 7.4 (20 mM HEPES buffer), aqueous buffer, thermodynamic from solid, water pH 7.4 (20 mM HEPES), 25 °C, read-out: S (meas.)
Experimental: (§2) The thermodynamic solubility of COTI-NMeCy, COTI-Nme2, COTI-NH2, and COTI-2 was measured for the saturated solutions in water at pH 7.4 (20 mM HEPES buffer) at 25.0 ± 0.1 °C. The concentrations of the compounds were determined by UV-vis spectrophotometry using stock solutions of the compounds with known concentrations dissolved in pure DMSO, and 50% and 1% (v/v) DMSO/buffered aqueous solution for the calibration. The parallel artificial membrane permeability assay (PAMPA) was applied for the ligands with a Corning Gentest pre-coated PAMPA Plate System. Peff values were calculated according to the equation reported by Yu et al..

[3] = Distribution coefficient, shake-flask n-octanol/buffer pH 7.4; format: physicochemical; conditions: n-octanol/buffered aqueous solution; n-octanol/water, pH 7.4, 25 °C; read-out: log D7.4 (meas.)
Experimental: Distribution coefficient (D7.4) values of COTI-NH2 were determined by the shake-flask method in n-octanol/buffered aqueous solution at pH 7.4 in 20 mM phosphate buffer (0.10 M KCl) at 25.0 ± 0.2 °C following a similar approach to that reported in our previous works. The other compounds and all of their Cu(II) complexes were too lipophilic to obtain experimental data. Thus, the logP values were calculated for COTI-NMeCy, COTI-Nme2, and COTI-2 (MarvinSketch,version 16.12.12.0, calculation module developed by ChemAxon (Budapest, Hungary), http://www.chemaxon.com/products/marvin/marvinsketch/ (accessed on 20 August 2022)).

[4] = Parallel artificial membrane permeability assay (PAMPA); format: in vitro ADME; conditions: pH 7.4, 25 °C, read-out: Peff
Experimental: as §2

[5] = Iron(III) complex formation, UV-vis spectrophotometric titrations; format: physicochemical
Experimental: as §1

[6] = Iron(II) complex formation, UV-vis spectrophotometric titrations (anaerobic); format: physicochemical
Experimental: as §1

[7] = Copper(II) complex formation, UV-vis titrations and EDTA competition; format: physicochemical
Experimental: as §1
The conditional stability constants (β’) of the Cu(II) complexes were calculated from competition reactions with EDTA at pH = 5.9 using MES (50 mM) when the metal:ligand ratio was 1:1 (clig = cCu between 10 and 80 μM). Individual samples were prepared in which the ligand:EDTA ratio was variable between 1:0 and 1:50. After a 3 h incubation period, UV-vis spectra were collected. The calculation of the β’ (CuL) values was performed following the same method as that in our previous work using the logβ’5.90 = 13.89 of complex [Cu(EDTA)]^2− obtained from the previously reported equilibrium constants of EDTA and its Cu(II) complex.

[8] = Zinc(II) complex formation, UV-vis spectrophotometric titrations; format: physicochemical
[9] = Cyclic voltammetry of copper(II)–ligand (1:1) systems; format: physicochemical; conditions: cL = cCu(II) = 1 mM, pH 7.40, 25 °C, 90% (v/v) DMSO/H2O, 0.01 V/s scan rate
Experimental: (§3) Cyclic voltammograms for the Fe(III) and Cu(II) complexes were recorded in 90% (v/v) DMSO/water solution containing 1 mM ligand and 0.5 mM FeCl3 or 1 mM CuCl2 using a conventional three-electrode system under nitrogen atmosphere and a PC-Controlled Electrochemical Measurement System (EF 451). The ionic strength was 0.10 M, adjusted by TBAN. Samples were purged for 15 min with Ar before recording the cyclic voltammograms. Platinum electrodes were used as the working and auxiliary electrodes, and Ag/AgCl (3 M KCl) was applied as the reference electrode. The electrochemical potentials were converted into the normal hydrogen electrode (NHE) scale by adding 0.222 V. The instrument was calibrated with an aqueous solution of K3[Fe(CN)6] (E1/2 = +0.386 V vs. NHE). Redox potentials were obtained at different scan rates (5–25 mV/s) in the range of −0.8 to +0.1 V. The dependence of the peak current values of the square root of the scan rates is shown in Figure S5 for the iron and copper complexes of COTI-NMeCy.

[10] = tested on: SW480 cells; set-up: method as in PMID 33190481; conditions: 72 h, MTT; cited from earlier work
[11] = tested on: SW480/Coti cells; set-up: method as in PMID 33190481; conditions: cited from earlier work; for IC50: 72 h, MTT; for Relative Resistance SW480/Coti: IC50 of resistant subline divided by IC50 of parental SW480
[12] = tested on: SW480/Tria cells; set-up: method as in PMID 33190481; conditions: cited from earlier work; for IC50: 72 h, MTT; for Relative Resistance SW480/Tria: IC50 of resistant subline divided by IC50 of parental SW480
[13] = tested on: GLC-4 cells; set-up: method as in PMID 33190481; conditions: 72 h, MTT; cited from earlier work
[14] = tested on: GLC-4/adr cells (ABCC1-overexpressing); set-up: method as in PMID 33190481; conditions: cited from earlier work; for IC50: 72 h, MTT; for Relative Resistance GLC-4/adr: IC50 of GLC-4/adr divided by IC50 of parental GLC-4
[15] = set-up: method as in PMID 33190481; conditions: after formation of mixed-ligand GSH adduct; cited from earlier work
[16] = Cyclic voltammetry of iron(III)–ligand (1:2) systems; format: physicochemical; conditions: cL = 1 mM, pH 7.40, 25 °C, 90% (v/v) DMSO/H2O, 0.01 V/s scan rate
Experimental: as §3

[17] = set-up: method as in doi:10.1002/ejic.201200360; conditions: cited from earlier work
[18] = set-up: method as in doi:10.1002/ejic.200901174; conditions: cited from earlier work
[19] = set-up: method as in PMID 21523301; conditions: cited from earlier work
[20] = T = 25.0 °C, I = 0.10 M (KCl), 30% (v/v) DMSO/H2O
[21] = calculated at cM = 1 μM, cL = 10 μM, pH = 7.40

pKa ([1]; read-out: pKa (H2L)): 4.39 ± 0.01
pKa ([1]; read-out: pKa (HL)): 12.22 ± 0.01
solubility thermodynamic [2]: 737 µM (≈ 162 µg/mL)
logD [3]: 1.64
Papp [4]: 6.7 ± 0.7 ×10⁻⁶ cm/s
pFe(III)* ([5]; Fe(III) hydroxido species also considered as unbound metal, cFe = 1 μM, cL = 10 μM, pH = 7.40): 10.4
logβ [Fe(III)L2]^+ [5, 20]: 32.29 ± 0.08
logβ [Fe(III)L]^2+ [5, 20]: 20.00 ± 0.09
pFe(III) ([5]; –log[free Fe(III)] calculated at cFe = 1 μM, cL = 10 μM, pH = 7.40): 18.5
logβ [Fe(II)L2] [6, 20]: 31.21 ± 0.09
logβ [Fe(II)L]^+ [6, 20]: 17.36 ± 0.06
pFe(II) ([6]; –log[free Fe(II)] calculated at cFe = 1 μM, cL = 10 μM, pH = 7.40): 17.4
pCu [7, 21]: 13.1
logβ5.9′ [CuL]^+ ([7]; conditional stability constant, EDTA competition at pH = 5.90): 10.59 ± 0.08
logβ [CuL]^+ ([7]; β = β’ × αH, [H+] = 10^–5.90 M): 16.92
logβ [ZnL2] [8, 20]: 25.42 ± 0.04
logβ [ZnL]^+ [8, 20]: 14.07 ± 0.04
pZn [8, 21]: 11.6
E′ vs. NHE, copper(II)–ligand (1:1) systems [9]: -0.17 V
SMILES: NC(=S)N/N=C1\CCCc2cccnc21 [COTI-NH2]
IC50 [10]: 7.85 ± 0.92 µM
IC50 [11]: 4.39 ± 0.56 µM
Relative Resistance SW480/Coti [11]: 0.6 ***
IC50 [12]: > 20 µM
Relative Resistance SW480/Tria [12]: >2.5
IC50 [13]: 3.64 ± 0.39 µM
IC50 [14]: 3.65 ± 0.41 µM
Relative Resistance GLC-4/adr [14]: 1.0 ^n.s.
redox reaction of the copper(II) complex with GSH [15]: relatively slow redox reaction took place

SMILES: NC(=S)NN=Cc1ncccc1N [Triapine, 3-aminopyridine-2-carboxaldehyde thiosemicarbazone]
E’ vs. NHE, iron(III)–ligand (1:2) systems [16]: +0.03 V
E′ vs. NHE, copper(II)–ligand (1:1) systems [9]: -0.13 V
logD7.4 [17]: +0.85
logβ [CuL]^+ [18]: 13.9
E′ of the iron complex [19]: +0.07 V
IC50 [10]: 0.82 ± 0.18 µM
IC50 [11]: 0.81 ± 0.08 µM
Relative Resistance SW480/Coti [11]: 1.0 ^n.s.
IC50 [12]: > 50 µM
Relative Resistance SW480/Tria [12]: >61
IC50 [13]: 0.65 ± 0.09 µM
IC50 [14]: 0.57 ± 0.05 µM
Relative Resistance GLC-4/adr [14]: 0.9 ^n.s.
